Entries after “also recorded” stand apart in the source; their conditions may differ.
Assays:
[1] = target: T1, FKBP* (Homo sapiens, UniProt P62942, F37V); experiment: Immunoblot of FKBP* degradation in 293FT cells (CRBN-WT or CRBN−/−); assay type: cell-based; details: 4 hours
T1 construct: HA; expressed in transfected cells; host or cells: 293FT cells (CRBN-WT or CRBN-/-)
Description: (§1) The dTAG is predicated on the selectivity of FKBP* specific ligands over endogenous, wild type FKBP. In 293T cells expressing wild type FKBP12 or FKBP*, dFKBP7 induces targeted degradation only in FKBP* expressing cells. An immunoblot of cells treated with heterobifunctional compounds described in the present invention was performed. 293FT cells (CRBN-WT or CRBN−/−) expressing either HA-tagged FKBP12WT or FKBP* were treated with indicated concentrations of dFKBP7 for 4 hours.
In 293T cells expressing wild type FKBP12 or FKBP*, treatment with dFKBP7 and dFKBP13 induces targeted degradation only in FKBP* expressing cells. Isogenic 293FT cells (CRBN-WT or CRBN−/−) were engineered to expressed either FKBP12WT or FKBP*. Cells were treated with 100 nM of either dFKBP7 or dFKBP13 for 4 hours before lysates were prepared for western immunoblot analysis.
In an effort to define the optimal concentration of dFKB13 heterobifunctional compound to induce degradation of FKBP*, degradation was measured upon treatment with increasing concentrations of dFKBP13. Isogenic 293FT cells (CRBN-WT or CRBN−/−) were engineered to expressed HA-tagged FKBP*. Cells were treated with the indicated dose of dFKBP13 for 4 hours before lysates were prepared for western immunoblot analysis.
To evaluate the kinetic control of targeted degradation FKBP*, dFKBP13 was administered by increased duration. […]

[2] = target: T2, FKBP12WT (Homo sapiens, UniProt P62942); experiment: Immunoblot of wild type FKBP12 in 293FT cells (selectivity control); assay type: cell-based; details: 4 hours
T2 construct: HA; expressed in transfected cells; host or cells: 293FT cells (CRBN-WT or CRBN-/-)
Description: as §1, with “In 293T cells expressing wild type FKBP12 or FKBP*, dFKBP7 induces targeted degradation only in FKBP* expressing cells.” left out
Isogenic 293FT cells (CRBN-WT or CRBN−/−) were engineered to expressed either FKBP12WT or FKBP*. Cells were treated with 100 nM of either dFKBP7 or dFKBP13 for 4 hours before lysates were prepared for western immunoblot analysis.

[3] = target: T3, FKBP* fused to Nluc (Homo sapiens, UniProt P62942, F37V); experiment: Nluc/Fluc luciferase ratio assay of FKBP* degradation in 293FT cells; assay type: cell-based; details: wild type or CRBN−/− 293FT cells, indicated concentrations, 4 hours
T3 construct: Nluc (nano luciferase) fusion partner; expressed in transfected cells; host or cells: 293FT cells (wild type or CRBN-/-)
Description: In an effort to identify potent and selective dFKPB heterobifunctional compounds, high throughput measurements of targeted FKBP* degradation were measured by surrogate levels of luciferase. Here, FKBP* is exogenously expressed as a multicistronic transcript with two types of luciferase: nano luciferase (NLuc) and firefly luciferase (FLuc) that allow for cell normalized quantification of FKBP* protein levels. Degradation of FKBP* is measured as a signal ration (Nluc/Fluc) in wild type (FIG. 4A) or CRBN −/− (FIG. 4B) 293FT cells treated with indicated concentrations of dFKBPs for 4 hours.

[4] = tested on: FKBP*-KRASG12V; experiment: Immunoblot of FKBP*-KRASG12V (dTAG-KRAS) degradation in NIH3T3 cells; assay type: cell-based
Description: (§2) Cells were treated with 500 nM dFKBP7 for the indicated time. Cells were harvested and immunoblotted to measure degradation of FKBP*-KRAS and downstream surrogates of KRAS signaling (e.g. pMEK and pAKT).
(§3) Western blotting of NIH3T3 cells expressing dTAG-KRASG12V were treated with 1 μM of the indicated dFKBP heterobifunctional compounds for 24 hours. Cells were harvested and immunoblotted to measure degradation of FKBP*-KRAS and downstream surrogates of KRAS signaling (e.g. pMEK and pAKT).
(§4) Western blotting of NIH3T3 cells expressing FKBP* fused to the N-terminus of KRAS treated with the indicated concentrations of dFKBP13 for 24 hours. Cells were harvested and immunoblotted to measure degradation of FKBP*-KRAS and downstream surrogates of KRAS signaling (e.g. pMEK and pAKT).
(§5) To evaluate the kinetic control of targeted degradation of dTAG-KRAS, dFKBP13 was administered by increased duration. Western blotting of NIH3T3 cells expressing FKBP* fused to the N-terminus of KRAS treated with 1 μM dFKBP13 for the indicated time. Cells were harvested and immunoblotted to measure degradation of FKBP*-KRAS and downstream surrogates of KRAS signaling (e.g. pMEK and pAKT).
NIH3T3 cells (CRBN-WT) were engineered to express dTAG-KRASG12V. […]

[5] = tested on: KRAS signaling (pMEK and pAKT); experiment: Immunoblot of downstream surrogates of KRAS signaling in NIH3T3 cells expressing dTAG-KRAS; assay type: cell-based
Description: as §2
as §3, with “In an effort to identify the best performing dFKBP molecule, dTAG-KRAS degradation was profiled across a series of dFKBP molecules. Western” for “Western”
as §4, §5
The dFKBP13 heterobifunctional compound potently degrades dTAG-KRAS mutant alleles. […]

[6] = tested on: NIH3T3 cells expressing dTAG-KRASG12V; experiment: Propidium iodide cell cycle analysis of NIH3T3 cells expressing dTAG-KRASG12V; assay type: cell-based; details: 48 hours
Description: NIH3T3 cells were engineered to express dTAG-KRASG12V. NIH3T3 cells expressing dTAG-KRASG12V were treated with dFKBP7 and dFKBP13 for 48 hours to induce targeted dTAG-KRASG12V degradation. Fixed cells were stained with propidium iodide and cell cycle analysis was performed.

[7] = tested on: indicated proteins fused to mutant FKBP* with an HA tag; experiment: Immunoblot of proteins fused to dTAG (FKBP*) in MV4;11 leukemia cells; details: indicated concentrations, 16 hours, western blot
Description: To test the general utility of the dTAG technology across several protein types, the indicated proteins fused to the dTAG in MV4;11 leukemia cells were expressed.

[8] = 293FT CRBN-WT or CRBN−/−, indicated concentrations
[9] = isogenic 293FT CRBN-WT or CRBN−/−, 100 nM
[10] = NIH3T3 dTAG-KRASG12V, 1 μM, 24 hours

T1 sequence (P62942 whole entry F37V): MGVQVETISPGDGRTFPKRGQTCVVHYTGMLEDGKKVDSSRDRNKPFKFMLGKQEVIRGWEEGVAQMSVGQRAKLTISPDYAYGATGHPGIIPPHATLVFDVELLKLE
T2 sequence (P62942 whole entry): as the sequence (P62942 whole entry F37V) above, with V37F counted along it
T3 sequence (P62942 2-108 F37V): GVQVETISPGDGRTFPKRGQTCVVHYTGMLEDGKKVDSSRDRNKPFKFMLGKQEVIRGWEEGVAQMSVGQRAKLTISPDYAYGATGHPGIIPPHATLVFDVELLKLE
T3 sequence (Q96SW2 whole entry partner, the tested form may be a part): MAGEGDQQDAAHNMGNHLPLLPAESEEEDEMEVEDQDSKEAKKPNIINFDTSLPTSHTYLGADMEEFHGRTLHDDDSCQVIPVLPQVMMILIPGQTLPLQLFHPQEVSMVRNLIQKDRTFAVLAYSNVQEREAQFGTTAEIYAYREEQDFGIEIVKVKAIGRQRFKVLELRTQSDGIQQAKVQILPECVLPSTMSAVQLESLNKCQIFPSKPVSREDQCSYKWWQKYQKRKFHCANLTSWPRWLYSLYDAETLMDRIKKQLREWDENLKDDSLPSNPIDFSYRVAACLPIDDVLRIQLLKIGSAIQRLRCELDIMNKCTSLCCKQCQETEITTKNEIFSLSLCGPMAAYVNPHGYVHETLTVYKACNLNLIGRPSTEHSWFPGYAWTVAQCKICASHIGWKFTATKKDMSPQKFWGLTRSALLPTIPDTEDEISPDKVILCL
T3 sequence (Q16531 whole entry partner, the tested form may be a part): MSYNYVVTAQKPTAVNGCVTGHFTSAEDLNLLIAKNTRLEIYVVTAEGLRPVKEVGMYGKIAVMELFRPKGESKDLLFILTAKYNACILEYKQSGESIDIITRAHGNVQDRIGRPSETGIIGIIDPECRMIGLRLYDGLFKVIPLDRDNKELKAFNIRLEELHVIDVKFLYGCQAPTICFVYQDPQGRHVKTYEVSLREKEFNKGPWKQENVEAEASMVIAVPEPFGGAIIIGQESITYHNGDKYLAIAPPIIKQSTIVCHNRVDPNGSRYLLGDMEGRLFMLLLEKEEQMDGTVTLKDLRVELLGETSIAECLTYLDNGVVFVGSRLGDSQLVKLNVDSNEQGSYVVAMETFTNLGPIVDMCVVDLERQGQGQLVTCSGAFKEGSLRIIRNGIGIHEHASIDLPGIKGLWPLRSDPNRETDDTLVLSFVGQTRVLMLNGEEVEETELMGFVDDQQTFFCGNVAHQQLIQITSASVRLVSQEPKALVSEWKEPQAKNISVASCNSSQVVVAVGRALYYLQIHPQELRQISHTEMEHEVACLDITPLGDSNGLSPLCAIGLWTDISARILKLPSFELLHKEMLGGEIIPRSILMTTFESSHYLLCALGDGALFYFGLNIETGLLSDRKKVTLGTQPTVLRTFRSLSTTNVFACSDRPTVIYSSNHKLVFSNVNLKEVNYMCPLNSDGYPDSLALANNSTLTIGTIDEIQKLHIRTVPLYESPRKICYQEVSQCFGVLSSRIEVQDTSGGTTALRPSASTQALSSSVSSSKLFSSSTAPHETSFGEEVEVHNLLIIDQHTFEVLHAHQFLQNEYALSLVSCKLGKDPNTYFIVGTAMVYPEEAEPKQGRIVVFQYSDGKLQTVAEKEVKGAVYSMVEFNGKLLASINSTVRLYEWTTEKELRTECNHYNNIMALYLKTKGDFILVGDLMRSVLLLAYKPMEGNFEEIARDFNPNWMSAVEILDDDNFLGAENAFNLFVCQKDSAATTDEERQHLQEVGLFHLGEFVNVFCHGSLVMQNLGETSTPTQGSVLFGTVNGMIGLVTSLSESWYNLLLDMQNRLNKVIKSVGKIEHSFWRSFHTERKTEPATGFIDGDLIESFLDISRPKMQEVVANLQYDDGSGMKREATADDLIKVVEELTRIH

| Structure (SMILES) | degradation of HA-tagged FKBP* [1, 8] | degradation of FKBP* [1, 9] | degradation of HA-tagged FKBP12WT [2, 8] | degradation of FKBP12WT or endogenous FKBP12 [2, 9] | degradation of FKBP* as signal ratio (Nluc/Fluc) [3] | degradation of N-terminal dTAG-KRAS ([4]; NIH3T3, 500 nM, indicated time) | downstream p-AKT signal ([5]; NIH3T3 N-terminal dTAG-KRAS, 500 nM, indicated time) | cell cycle profile (S-phase entry) [6] | targeted degradation of proteins fused to dTAG [7] | degradation of FKBP*-KRAS [4, 10] | inhibition of downstream signaling (pMEK, pAKT) [5, 10] |
| --- | --- | --- | --- | --- | --- | --- | --- | --- | --- | --- | --- |
| CC[C@H](C(=O)N1CCCC[C@H]1C(=O)O[C@H](CCc1ccc(OC)c(OC)c1)c1cccc(OCC(=O)NCCCOCCOCCOCCCNC(=O)COc2cccc3c2C(=O)N(C2CCC(=O)NC2=O)C3=O)c1)c1cc(OC)c(OC)c(OC)c1 (some centres unmarked) [dFKBP7] | CRBN-dependent degradation of FKBP* | CRBN-dependent degradation of FKBP* | not FKBPWT | not FKBP12WT or endogenous FKBP12 | effectively degrade FKBP* in a cereblon dependent manner | potent degradation; also recorded: degraded | decrease in p-AKT signal | diminished S-phase entry | degradation was observed with nanomolar concentrations | – | – |
| CC[C@H](C(=O)N1CCCC[C@H]1C(=O)O[C@H](CCc1ccc(OC)c(OC)c1)c1cccc(OCC(=O)NCCCCCCCCNC(=O)COc2cccc3c2C(=O)N(C2CCC(=O)NC2=O)C3=O)c1)c1cc(OC)c(OC)c(OC)c1 (some centres unmarked) [dFKBP9] | – | – | – | – | – | – | – | – | – | potent degradation | inhibition of downstream signaling |
